# In patent US12344610B2, “APOL1 inhibitors and methods of use” (Maze Therapeutics, Inc., priority 2022, dated 2025):
# Key:
# Format in all cases: cell-based
# [1] = system: Trypanosoma brucei Lister 427 VSG221 with APOL1 G1 recombinant protein; experiment: APOL1 G1 trypanosome cell rescue assay (Example B5); details: Trypanosoma brucei, 20 h, read-out: APOL1 G1 Trypanosome Rescue EC50, Trypanosoma brucei Lister 427 VSG221 with APOL1 G1 recombinant protein, 20 hours, CellTiter-Glo; geometric mean of at least 2 assay runs; † = single assay run
# How it was run: (§1)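 Luminescent ATP read-out (CellTiter-Glo) of trypanosome viability after 20 h at 37° C. Bloodstream T. brucei Lister 427 VSG221, 250/well in modified HMI-9, were exposed to recombinant mature APOL1 (aa 28-398) from a 2 μg/mL addition, plus compound in 11-point 2-fold series.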
# [2] = system: Trypanosoma brucei Lister 427 VSG221 with APOL1 G2 recombinant protein; experiment: APOL1 G2 trypanosome cell rescue assay (Example B5); details: Trypanosoma brucei, 20 h, read-out: APOL1 G2 Trypanosome Rescue EC50, Trypanosoma brucei Lister 427 VSG221 with APOL1 G2 recombinant protein, 20 hours, CellTiter-Glo; geometric mean of at least 2 assay runs; † = single assay run
# How it was run: as §1
# [3] = system: HEK293 clonal cell line overexpressing APOL1 G1; experiment: APOL1 G1 HEK293 cell rescue assay (Example B3); details: Homo sapiens, HEK293, HEK293 clonal line overexpressing APOL1 G1; geometric mean of at least 2 runs; † = single run; ¥ = concentration at 50% rescue estimated (no sigmoidal curve)
# How it was run: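 Rescue of cell death caused by APOL1 G1 overexpression was measured in a clonal HEK293 line. Compounds were tested in duplicate on one plate, and EC50s were geometric means across at least two runs on different days. Some values are estimated 50%-rescue concentrations where curve fitting failed.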
Structure (SMILES),EC50 [1] [nM],EC50 [2] [nM],EC50 [3] [nM]
"CS(=O)(=O)N(CCO)c1ccc(OCCN2CCC3(CC2)C(=O)Nc2ccc(Cl)cc23)cc1 [Compound 98, N-[4-(2-{5-chloro-2-oxo-1,2-dihydrospiro[indole-3,4′-piperidin]-1′-yl}ethoxy)phenyl]-N-(2-hydroxyethyl)methanesulfonamide]",259,72.2,183
"CC1(S(=O)(=O)c2ccc(OCCN3CCC4(CC3)C(=O)Nc3ccc(C#N)cc34)cc2)COC1 [Compound 93, 1′-(2-{4-[(3-methyloxetan-3-yl)sulfonyl]phenoxy}ethyl)-2-oxo-1,2-dihydrospiro[indole-3,4′-piperidine]-5-carbonitrile]",264,56.9,230
"CC(c1ncc(OCCN2CCC3(CC2)C(=O)Nc2ccc(Cl)cc23)cn1)S(C)(=O)=O (single isomer, unassigned) [Compound 2, 5-chloro-1′-[2-({2-[(1S) or (1R)-1-methanesulfonylethyl]pyrimidin-5-yl}oxy)ethyl]-1,2-dihydrospiro[indole-3,4′-piperidin]-2-one]",191,56.3,346
"CC(C)N1C(=O)CCc2cc(OCCN3CCC4(CC3)C(=O)Nc3ccc(Cl)cc34)ccc21 [Compound 97, 5-chloro-1′-(2-{[2-oxo-1-(propan-2-yl)-1,2,3,4-tetrahydroquinolin-6-yl]oxy}ethyl)-1,2-dihydrospiro[indole-3,4′-piperidin]-2-one]",98.4,40.6,143
"CS(=O)(=O)c1c(F)cc(OCCN2CCC3(CC2)C(=O)Nc2ccc(C#N)cc23)cc1F [Compound 90, 1′-[2-(3,5-difluoro-4-methanesulfonylphenoxy)ethyl]-2-oxo-1,2-dihydrospiro[indole-3,4′-piperidine]-5-carbonitrile]",679,163,594
